Experimental data reported in patent US7998988B2, “Biphenyl compounds useful in the treatment or prevention of cardiovascular disorders” (Bayer Schering Pharma Aktiengellschaft, priority 2005, dated 2011).

System: saphenous artery rings
Assay: Vasorelaxant effect in vitro (phenylephrine-contracted artery rings)
Format: cell-based
Settings: Oryctolagus cuniculus, rabbit saphenous artery rings, contraction induced by phenylephrine
Procedure: Rabbits are anesthetized and sacrificed by intravenous injection of thiopental sodium (about 50 mg/kg) and exsanguinated. The saphenous artery is removed and divided into rings 3 mm wide. The rings are mounted singly on in each case a pair of triangular hooks open at the end and made of 0.3 mm-thick special wire (Remanium®). Each ring is placed under an initial tension in 5 ml organ baths with Krebs-Henseleit solution which is at 37° C., is gassed with 95% 02/5% CO2 and has the following composition: NaCl 119 mM; KCl 4.8 mM; CaCl2×2H2O 1 mM; MgSO4×7 H2O 1.4 mM; KH2PO4 1.2 mM; NaHCO3 25 mM; glucose 10 mM; bovine serum albumin 0.001%. The force of contraction is detected with Statham UC2 cells, amplified and digitized via A/D converters (DAS-1802 HC, Keithley Instruments, Munich) and recorded in parallel on chart recorders. Contractions are induced by addition of phenylephrine.
After several (generally 4) control cycles, the substance to be investigated is added in each further run in increasing dosage, and the height of the contraction achieved under the influence of the test substance is compared with the height of the contraction reached in the last preceding run. The concentration necessary to reduce the contraction reached in the preceding control by 50% is calculated from this (IC50). The standard application volume is 5 μl. The proportion of DMSO in the bath solution corresponds to 0.1%.

Structure (SMILES) | IC50 [nM]
CC(C)(C)c1ccc(COc2ccccc2/C=C/C(CCc2ccc(C(=O)O)cc2)Cc2ccc(-c3n[nH]c(N)n3)cc2)cc1 (stereo not shown) [Example 81, 4-((4E)-3-[4-(5-Amino-1H-1,2,4-triazol-3-yl)benzyl]-5-{2-[(4-tert.-butylbenzyl)oxy]phenyl}pent-4-en-1-yl)benzoic acid] | 422
CC(C)(C)c1ccc(COc2ccc(F)cc2/C=C/C(CCc2ccc(-c3noc(=O)[nH]3)cc2)Cc2ccc(C(=O)O)cc2)cc1 (single isomer, unassigned) [Example 51] | 505
O=C(O)c1ccc(CCC(/C=C\c2ccccc2OC(F)(F)F)Cc2ccc(-c3noc(=O)[nH]3)cc2)cc1 (single isomer, unassigned) [Example 96] | 1330
O=C(O)c1ccc(CC(/C=C/c2ccccc2OCc2ccc(-c3ccc(C(F)(F)F)cc3)cc2)CCc2ccc(-c3noc(=O)[nH]3)cc2)cc1 (single isomer, unassigned) [Example 18] | 490
CC(C)(C)c1ccc(COc2ccccc2/C=C/C(CCCCC(=O)O)Cc2ccc(-c3n[nH]c(=O)o3)cc2)cc1 (stereo not shown) [Example 85, E-8-[2-(4-tert-Butylbenzyloxy)phenyl]-6-[4-(5-oxo-4,5-dihydro-[1,3,4]oxadiazol-2-yl)benzyl]oct-7-enoic acid] | 58
CC(C)(C)c1ccc(COc2ccccc2/C=C/C(CCc2ccc(C(=O)O)cc2)Cc2ccc(-c3n[nH]c(=O)o3)cc2)cc1 (single isomer, unassigned) [Example 78, 4-{(4E)-5-{2-[(4-tert-Butylbenzyl)oxy]phenyl}-3-[4-(5-oxo-4,5-dihydro-1,3,4-oxadiazol-2-yl)benzyl]pent-4-en-1-yl}benzoic acid] | 13
CC(C)(C)c1ccc(COc2ccccc2/C=C/C(CCc2ccc(-c3n[nH]c(=S)[nH]3)cc2)Cc2ccc(C(=O)O)cc2)cc1 (stereo not shown) [Example 76, 4-((3E)-4-{2-[(4-tert-Butylbenzyl)oxy]phenyl}-2-{2-[4-(5-thioxo-4,5-dihydro-1H-1,2,4-triazol-3-yl)phenyl]ethyl}but-3-en-1-yl)benzoic acid] | 851
CCCCCOc1ccccc1/C=C/C(CCc1ccc(C(=O)O)cc1)Cc1ccc(-c2noc(=O)[nH]2)cc1 (single isomer, unassigned) [Example 92] | 390
CC(C)(C)c1ccc(COc2ccccc2/C=C/C(CCCCC(=O)O)CCc2ccc(-c3n[nH]c(=O)o3)cc2)cc1 (stereo not shown) [Example 74] | 290
CCCCCCOc1ccccc1/C=C/C(CCc1ccc(C(=O)O)cc1)Cc1ccc(-c2noc(=O)[nH]2)cc1 (single isomer, unassigned) [Example 95] | 410
CC(C)(C)c1ccc(COc2ccccc2/C=C/C(CCc2ccc(C(=O)O)cc2)Cc2ccc(-c3n[nH]c(=O)[nH]3)cc2)cc1 (stereo not shown) [Example 80, 4-{(4E)-5-{2-[(4-tert-Butylbenzyl)oxy]phenyl}-3-[4-(5-oxo-4,5-dihydro-1H-1,2,4-triazol-3-yl)benzyl]pent-4-en-1-yl}benzoic acid] | 74
CC(C)(C)c1ccc(COc2ccccc2/C=C/C(CCCCC(=O)O)CCc2ccc(-c3noc(=O)[nH]3)cc2)cc1 (single isomer, unassigned) [Example 71, E-8-[2-(4-tert-Butylbenzyloxy)phenyl]-6-{2-[4-(5-oxo-4,5-dihydro-[1,2,4]oxadiazol-3-yl)phenyl]-ethyl}oct-7-enoic acid] | 898
O=C(O)c1ccc(CN(CCc2ccc(-c3noc(=O)[nH]3)cc2)CCc2ccccc2OCc2ccc(-c3ccc(C(F)(F)F)cc3)cc2)cc1 [Example 1, 4-[({2-[4-(5-Oxo-4,5-dihydro-[1,2,4]oxadiazol-3-yl)phenyl]ethyl}-{2-[2-(4′-trifluoromethylbiphenyl-4-ylmethoxy)phenyl]ethyl}amino)methyl]benzoic acid] | 26
CC(C)(C)c1ccc(COc2ccccc2/C=C/C(CCc2ccc(C(=O)O)cc2)Cc2ccc(-c3noc(=O)[nH]3)cc2)cc1 (single isomer, unassigned) [Example 66] | 263
O=C(O)c1ccc(CCC(/C=C\c2ccccc2OCc2ccc(-c3ccc(C(F)(F)F)cc3)cc2)Cc2ccc(-c3noc(=O)[nH]3)cc2)cc1 (single isomer, unassigned) [Example 57] | 714
COc1ccc(CCc2ccc(F)cc2/C=C/C(CCc2ccc(-c3noc(=O)[nH]3)cc2)Cc2ccc(C(=O)O)cc2)cc1 (single isomer, unassigned) [Example 11, E-4-(4-{5-Fluoro-2-[2-(4-methoxyphenyl)ethyl]phenyl}-2-{2-[4-(5-oxo-4,5-dihydro-[1,2,4]oxadiazol-3-yl)phenyl]ethyl}but-3-enyl)benzoic acid] | 724

Same assay, conditions: rabbit saphenous artery rings, contraction induced by phenylephrine

Structure (SMILES) | IC50 [nM]
CC(C)(C)c1ccc(COc2ccccc2/C=C/C(CCc2ccc(C(=O)O)cc2)Cc2ccc(-c3noc(=O)[nH]3)cc2)cc1 (single isomer, unassigned) [Example 67] | 153
O=C(O)c1ccc(CCC(/C=C/c2ccccc2OCc2ccc(-c3ccc(C(F)(F)F)cc3)cc2)Cc2ccc(-c3noc(=O)[nH]3)cc2)cc1 (single isomer, unassigned) [Example 56, E-4-{3-[4-(5-Oxo-4,5-dihydro-[1,2,4]oxadiazol-3-yl)benzyl]-5-[2-(4′-trifluoromethylbiphenyl-4-ylmethoxy)phenyl]pent-4-enyl}benzoic acid] | 635
O=C(O)c1ccc(CC(/C=C/c2ccccc2OCc2ccc(-c3ccc(C(F)(F)F)cc3)cc2)CCc2ccc(-c3noc(=O)[nH]3)cc2)cc1 (single isomer, unassigned) [Example 19] | 850
